In ChEMBL document CHEMBL4342498, “Design and Discovery of an Orally Efficacious Spiroindolinone-Based Tankyrase Inhibitor for the Treatment of Colon Cancer” (J Med Chem, 2020):
One block for each molecule: values may come before it. Active and inactive are the calls of the source. No cut-off for these calls is given here.

What was measured:
[1] = Tmax in ICR mouse at 20 mg/kg, ip; type: ADME, organism-based; conditions: in vivo
[2] = Half life in Sprague-Dawley rat at 3 mg/kg, iv; type: ADME, organism-based; conditions: in vivo
Mus musculus [3] = experiment: (§1) In vivo inhibition of TNSK/TNSK2-medited WNT/beta-catenin signaling in human COLO320DM cells xenografted Prkdc-NOD-SCID CB17 mouse assessed as upregulation of AXIN2 expression in tumor cytosolic extract at 10 to 20 mg/kg, po administered twice daily for 5 days followed by 2 days interval for 2 cycles measured 4 hrs post-last dose by Western blot analysis; type: functional, organism-based
[4] = AUC (infinity) in ICR mouse at 20 mg/kg, po; type: ADME, organism-based; design: dose 20 mg/kg, time infinity, route oral; conditions: in vivo
[5] = AUC (infinity) in Sprague-Dawley rat at 3 mg/kg, po; type: ADME, organism-based; design: dose 3 mg/kg, time infinity, route oral; conditions: in vivo
COLO 320DM [6] = experiment: Antitumor activity against human COLO320DM cells xenografted in Prkdc-NOD-SCID CB17 mouse assessed as tumor growth inhibition at 10 mg/kg, ip administered twice daily for 5 days followed by 2 days interval for 2 cycles relative to control; type: functional; conditions: read-out: TGI
[7] = Volume of distribution at steady state in Sprague-Dawley rat at 3 mg/kg, iv; type: ADME, organism-based; conditions: in vivo, read-out: Vdss
[8] = Toxicity in human COLO320DM cells xenografted Prkdc-NOD-SCID CB17 mouse assessed as reduction in appetite at 50 mg/kg, ip administered twice daily for 5 days followed by 2 days interval for 2 cycles; conditions: in vivo
[9] = Toxicity in human COLO320DM cells xenografted Prkdc-NOD-SCID CB17 mouse assessed as change in body weight at 10 to 20 mg/kg, ip administered twice daily for 5 days followed by 2 days interval for 2 cycles measured during compound dosing; type: organism-based; conditions: in vivo
COLO 320DM [10] = experiment: Antiproliferative activity against human COLO320DM cells assessed inhibition of cell growth measured after 5 days by MTT assay; type: functional; conditions: 120 h
Cytochrome P450 2C9 = Cytochrome P450 2C9 (Homo sapiens, UniProt P11712); experiment: Inhibition of CYP2C9 in human liver microsomes using diclofenac as substrate preincubated for 5 mins followed by NADPH addition and measured for 10 to 30 mins by LC-MS/MS analysis; type: ADME
[11] = Tmax in Sprague-Dawley rat at 3 mg/kg, po; type: ADME, organism-based; conditions: in vivo
[12] = AUC (infinity) in ICR mouse at 20 mg/kg, ip; type: ADME, organism-based; design: dose 20 mg/kg, route intraperitoneal, time infinity; conditions: in vivo
Mus musculus [13] = experiment: as §1, with “as reduction in active-beta catenin” for “as upregulation of AXIN2”, “tumor nuclear” for “tumor cytosolic”, “mg/kg, ip” for “mg/kg, po”; type: functional, organism-based
Mus musculus [14] = experiment: as §1, with “reduction in total beta catenin” for “upregulation of AXIN2”, “nuclear” for “cytosolic”; type: functional, organism-based
[15] = Tmax in ICR mouse at 20 mg/kg, po; type: ADME, organism-based; conditions: in vivo
[16] = Cmax in ICR mouse at 20 mg/kg, po; type: ADME, organism-based; design: dose 20 mg/kg, route oral; conditions: in vivo
[17] = Plasma concentration in human COLO320DM cells xenografted Prkdc-NOD-SCID CB17 mouse at 10 mg/kg, po administered twice daily for 5 days followed by 2 days interval for 2 cycles measured 4 hrs post-last dose; type: ADME, organism-based
[18] = Stability in rat liver microsomes assessed as parent compound remaining at 1 uM measured after 30 mins in presence of NADPH by LC-MS/MS analysis; type: ADME, Microsome; conditions: read-out: Stability
[19] = Toxicity in human COLO320DM cells xenografted Prkdc-NOD-SCID CB17 mouse assessed as behavioral changes at 10 to 20 mg/kg, ip administered twice daily for 5 days followed by 2 days interval for 2 cycles measured during compound dosing; type: organism-based; conditions: in vivo
Cytochrome P450 1A2 = molecular target: T1, Cytochrome P450 1A2 (Homo sapiens, UniProt P05177); experiment: Inhibition of CYP1A2 in human liver microsomes using phenacetin as substrate preincubated for 5 mins followed by NADPH addition and measured for 10 to 30 mins by LC-MS/MS analysis; type: ADME
T1 sequence (P05177 whole entry): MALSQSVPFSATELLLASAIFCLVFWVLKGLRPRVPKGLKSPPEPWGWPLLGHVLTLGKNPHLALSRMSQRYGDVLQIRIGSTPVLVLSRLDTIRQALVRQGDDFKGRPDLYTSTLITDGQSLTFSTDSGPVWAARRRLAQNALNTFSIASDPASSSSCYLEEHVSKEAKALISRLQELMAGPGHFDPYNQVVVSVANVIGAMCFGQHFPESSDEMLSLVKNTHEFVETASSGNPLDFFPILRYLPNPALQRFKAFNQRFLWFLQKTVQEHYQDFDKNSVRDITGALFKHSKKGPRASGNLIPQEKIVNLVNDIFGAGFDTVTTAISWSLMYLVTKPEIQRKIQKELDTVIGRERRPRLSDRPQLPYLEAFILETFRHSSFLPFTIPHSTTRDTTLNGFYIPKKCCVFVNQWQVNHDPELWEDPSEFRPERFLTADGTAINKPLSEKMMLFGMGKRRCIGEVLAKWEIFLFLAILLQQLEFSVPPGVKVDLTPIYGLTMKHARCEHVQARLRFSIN

[20] = Toxicity in human COLO320DM cells xenografted Prkdc-NOD-SCID CB17 mouse assessed as reduction in crypt proliferation at 50 mg/kg, ip administered twice daily for 5 days followed by 2 days interval for 2 cycles; conditions: in vivo
COLO 320DM [21] = experiment: Antitumor activity against human COLO320DM cells xenografted in Prkdc-NOD-SCID CB17 mouse assessed as tumor growth inhibition at 20 mg/kg, ip administered twice daily for 5 days followed by 2 days interval for 2 cycles relative to control; type: functional; conditions: read-out: TGI
Mus musculus [22] = experiment: as §1, with “as reduction in total beta catenin” for “as upregulation of AXIN2”, “tumor nuclear” for “tumor cytosolic”, “mg/kg, ip” for “mg/kg, po”; type: functional, organism-based
[23] = molecular target: Tankyrase 1/2 (Homo sapiens) (UniProt Q9H2K2+O95271); experiment: Inhibition of TNKS/TNKS2-mediated WNT/beta-catenin signaling pathway in human COLO320DM cells assessed as reduction in active beta-catenin expression by measuring beta-catenin level at 0.1 uM measured after 16 hrs by Western blot analysis relative to GADPH; type: cell-based
[24] = Toxicity in human COLO320DM cells xenografted Prkdc-NOD-SCID CB17 mouse assessed as loss of body weight at 50 mg/kg, ip administered twice daily for 5 days followed by 2 days interval for 2 cycles; conditions: in vivo
[25] = Cmax in Sprague-Dawley rat at 3 mg/kg, po; type: ADME, organism-based; design: dose 3 mg/kg, route oral; conditions: in vivo
[26] = Plasma concentration in ICR mouse at 20 mg/kg, po measured after 4 hrs; type: ADME, organism-based
[27] = Toxicity in human COLO320DM cells xenografted Prkdc-NOD-SCID CB17 mouse assessed as behavioral changes at 50 mg/kg, ip administered twice daily for 5 days followed by 2 days interval for 2 cycles; conditions: in vivo
[28] = Dose normalized AUC (infinity) in Sprague-Dawley rat at 1 mg/kg, iv; type: ADME, organism-based; conditions: in vivo

Cytochrome P450 2C9, sequence (P11712 whole entry): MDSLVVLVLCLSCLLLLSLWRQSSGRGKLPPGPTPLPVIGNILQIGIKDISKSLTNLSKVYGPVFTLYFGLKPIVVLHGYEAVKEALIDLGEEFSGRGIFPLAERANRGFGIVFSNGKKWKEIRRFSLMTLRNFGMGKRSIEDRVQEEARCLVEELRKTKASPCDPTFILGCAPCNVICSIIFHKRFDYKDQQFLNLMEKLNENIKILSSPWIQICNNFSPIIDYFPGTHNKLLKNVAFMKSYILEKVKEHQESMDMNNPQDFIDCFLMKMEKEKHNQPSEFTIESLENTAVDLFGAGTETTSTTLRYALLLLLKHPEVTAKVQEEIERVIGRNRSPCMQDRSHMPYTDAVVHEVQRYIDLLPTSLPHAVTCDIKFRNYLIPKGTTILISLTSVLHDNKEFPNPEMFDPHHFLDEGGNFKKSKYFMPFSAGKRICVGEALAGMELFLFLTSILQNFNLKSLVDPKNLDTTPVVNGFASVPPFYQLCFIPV
Tankyrase 1/2 (Homo sapiens), sequence (O95271 whole entry, looked up): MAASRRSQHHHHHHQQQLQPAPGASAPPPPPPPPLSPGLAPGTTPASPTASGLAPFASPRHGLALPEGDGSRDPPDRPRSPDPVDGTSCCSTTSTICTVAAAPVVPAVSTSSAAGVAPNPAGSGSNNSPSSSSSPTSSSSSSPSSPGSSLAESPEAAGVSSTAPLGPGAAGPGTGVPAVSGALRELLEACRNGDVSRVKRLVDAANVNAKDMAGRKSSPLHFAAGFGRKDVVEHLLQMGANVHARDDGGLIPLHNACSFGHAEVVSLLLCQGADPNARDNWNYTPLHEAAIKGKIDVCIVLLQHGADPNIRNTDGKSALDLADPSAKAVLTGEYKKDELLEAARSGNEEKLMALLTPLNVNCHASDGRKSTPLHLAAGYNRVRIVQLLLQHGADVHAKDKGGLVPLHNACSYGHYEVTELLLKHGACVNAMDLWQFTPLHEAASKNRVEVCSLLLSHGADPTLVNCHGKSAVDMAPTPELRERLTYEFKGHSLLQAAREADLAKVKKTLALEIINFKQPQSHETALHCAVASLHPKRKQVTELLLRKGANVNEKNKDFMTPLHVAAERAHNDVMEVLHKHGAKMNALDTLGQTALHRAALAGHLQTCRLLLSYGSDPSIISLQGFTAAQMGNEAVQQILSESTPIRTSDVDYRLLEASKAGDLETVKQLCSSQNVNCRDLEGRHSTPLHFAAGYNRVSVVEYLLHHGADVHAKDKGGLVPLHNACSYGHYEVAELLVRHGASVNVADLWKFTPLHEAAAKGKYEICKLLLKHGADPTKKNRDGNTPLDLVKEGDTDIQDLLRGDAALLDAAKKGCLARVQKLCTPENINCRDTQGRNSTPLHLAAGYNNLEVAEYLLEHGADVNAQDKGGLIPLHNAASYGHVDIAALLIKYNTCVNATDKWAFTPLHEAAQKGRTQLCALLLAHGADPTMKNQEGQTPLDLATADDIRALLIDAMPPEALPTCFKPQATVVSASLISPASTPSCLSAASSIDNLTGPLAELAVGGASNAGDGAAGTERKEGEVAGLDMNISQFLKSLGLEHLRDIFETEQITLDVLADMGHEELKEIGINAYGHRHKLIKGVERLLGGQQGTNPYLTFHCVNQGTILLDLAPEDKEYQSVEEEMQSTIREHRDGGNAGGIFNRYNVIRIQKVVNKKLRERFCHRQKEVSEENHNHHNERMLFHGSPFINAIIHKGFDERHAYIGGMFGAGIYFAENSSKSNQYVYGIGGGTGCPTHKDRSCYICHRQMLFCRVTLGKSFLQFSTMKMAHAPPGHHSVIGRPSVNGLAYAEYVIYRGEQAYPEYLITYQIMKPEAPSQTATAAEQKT
Tankyrase 1/2 (Homo sapiens), sequence (Q9H2K2 whole entry, looked up): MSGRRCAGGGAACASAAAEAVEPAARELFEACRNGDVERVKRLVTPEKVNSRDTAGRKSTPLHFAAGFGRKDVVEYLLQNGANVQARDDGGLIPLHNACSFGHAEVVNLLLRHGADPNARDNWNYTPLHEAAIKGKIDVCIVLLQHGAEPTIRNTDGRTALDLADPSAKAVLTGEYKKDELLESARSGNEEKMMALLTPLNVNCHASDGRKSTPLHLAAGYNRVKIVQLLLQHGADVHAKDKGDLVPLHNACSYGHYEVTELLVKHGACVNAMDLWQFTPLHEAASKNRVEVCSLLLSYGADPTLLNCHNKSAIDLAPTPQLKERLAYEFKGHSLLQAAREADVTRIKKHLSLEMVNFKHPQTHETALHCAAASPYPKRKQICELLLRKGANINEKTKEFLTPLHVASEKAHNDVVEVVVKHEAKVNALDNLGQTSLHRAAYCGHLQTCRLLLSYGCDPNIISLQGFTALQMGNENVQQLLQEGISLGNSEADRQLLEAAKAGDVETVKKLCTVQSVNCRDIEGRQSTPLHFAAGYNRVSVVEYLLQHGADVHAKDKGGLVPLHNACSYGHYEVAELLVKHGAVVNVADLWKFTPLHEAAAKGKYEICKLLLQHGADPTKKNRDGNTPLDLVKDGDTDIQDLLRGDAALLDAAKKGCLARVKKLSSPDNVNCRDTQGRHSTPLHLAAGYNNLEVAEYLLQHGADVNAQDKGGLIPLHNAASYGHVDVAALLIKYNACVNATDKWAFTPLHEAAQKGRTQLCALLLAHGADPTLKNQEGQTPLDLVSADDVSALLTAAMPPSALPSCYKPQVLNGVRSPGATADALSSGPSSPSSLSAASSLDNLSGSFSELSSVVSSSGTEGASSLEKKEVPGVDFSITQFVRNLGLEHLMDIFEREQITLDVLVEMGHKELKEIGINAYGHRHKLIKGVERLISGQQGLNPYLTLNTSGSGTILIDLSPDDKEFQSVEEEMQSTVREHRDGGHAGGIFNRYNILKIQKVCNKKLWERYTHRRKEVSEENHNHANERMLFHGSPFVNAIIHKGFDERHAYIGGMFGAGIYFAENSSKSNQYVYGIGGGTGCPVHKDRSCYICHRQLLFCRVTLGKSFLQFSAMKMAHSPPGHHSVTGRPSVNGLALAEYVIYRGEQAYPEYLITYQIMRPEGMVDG

Tmax [1]: 1 h
half-life [2]: 3.61 h
AUC(0-inf) [4]: 326 µM·h
AUC(0-inf) [5]: 33 µM·h
Vd [7]: 1.02 L/kg
GI50 (COLO 320DM [10]): 0.035 µM
IC50 (Cytochrome P450 2C9): > 10 µM
Tmax [11]: 0.33 h
AUC(0-inf) [12]: 266 µM·h
Ratio IC50 (Homo sapiens): 223
Tmax [15]: 1 h
Cmax [16]: 76.6 µM
concentration at 4 h [17]: 10.1 µM
remaining at 0.5 h, 1 µM [18]: 57.3%
IC50 (Cytochrome P450 1A2): > 10 µM
fold change (FC) [23]: 0.39
Cmax [25]: 12.7 µM
concentration at 4 h [26]: 26.9 µM
AUC/dose [28]: 10.49 µmol·h/L
SMILES: C[C@@H]1CN(c2cc(F)c3c(c2)N(C)C(=O)C32CCN(c3nc4c(c(=O)[nH]3)CCCN4C)CC2)C[C@H](C)O1
inhibition (Mus musculus [3]): Active
inhibition in vivo at 10 mg/kg (COLO 320DM [6]): 68.8%
Activity [8]: Toxic
Activity [9]: Non-Toxic
inhibition (Mus musculus [13]): inactive
inhibition (Mus musculus [14]): Active
Activity [19]: Non-Toxic
Activity [20]: Toxic
inhibition in vivo at 20 mg/kg (COLO 320DM [21]): 71.1%
inhibition (Mus musculus [22]): inactive
Activity [24]: Toxic
Activity [27]: Toxic

remaining at 0.5 h, 1 µM [18]: 80.2%
SMILES: CN1CCN(c2cc(F)c3c(c2)N(C)C(=O)C32CCN(c3nc4c(c(=O)[nH]3)CCCN4C)CC2)CC1
